Series [1] can be described thus: Cell viability assay in macrophage RAW264.7 cells (MTT). In kind it is cell-based. The note with it: mouse, read-out: % cell viability ± SD. How it is done:
RAW264.7 cells were seeded in 96-well cell culture plates at a density of 1×10^4 cells per well and incubated overnight at 37° C. with 5% CO2. Next day, the cells were treated with CBD or its derivatives at 5 μM and/or 10 μM concentration for 24 hrs. The MTT dye (2.5 mg/ml, 20 μL) was added to each well 4 hrs before termination (Molecules. 2022, 27, 8068). After 4 hrs of incubation with MTT, the supernatant was discarded, and the formazan crystals were dissolved by adding 100 μL DMSO. The absorbance was recorded at 540 nm on microplate reader (Tecan Infinite Pro).

Series [2] has as its system TrkB stable cells SHSY5Y. The series is described as follows: Cytoprotective effect in TrkB stable cells SHSY5Y, 96 hrs. In kind it is cell-based, human. As to conditions: Homo sapiens, SH-SY5Y, 96 h. How it is done: In another experiment, the cytoprotective effect of A1 as well as parent molecule B1 was determined in TrkB stable cells SHSY5Y.
The subject of series [3] is nitric oxide (NO) production in RAW264.7 macrophages. Briefly: In vitro anti-inflammatory activity: nitric oxide production (Griess) in LPS-exposed RAW264.7 macrophages. The class given is cell-based, mouse. The note with it: LPS 24 hrs. How it is done:
Measurement of Nitric oxide: RAW264.7 macrophages were seeded in 96-well plates with a density of 0.5×10^5 cells/well and incubated overnight at 37° C. in a 5% CO2 atmosphere. The cells were treated with different concentration of CBD and its analogues and exposed to LPS for 24 hrs. For nitric oxide (NO) determination, the cell culture supernatant was taken and mixed with equal volume of Griess reagent in another 96 well plate at room temperature (Biomed Pharmacother., 2017, 92, 175-186). The absorbance was measured at 540 nm. The final calculations were determined on a NaNO2 standard curve.

The nature of series [4]: Cell viability assay in differentiated neuronal cells (MTT), N2A. In kind it is cell-based. As to conditions: mouse, read-out: % Cell viability ± SD, N2A. An excerpt: (§1) In the present disclosure outlined herein, a focused library of cannabidiol analogues were studied for possible neuro-protective potential employing cell line-based stress model systems which mimic the biological stress conditions in vitro (J Cell Biochem., 2018, 119(8), 6482-6491).
(§2) Human neuroblastoma cells (SHSY5Y) and mouse neuroblastoma cells (N2A) were procured from American Type Culture Collection (ATCC). SHSY5Y cell cultures were maintained in DMEM F12 (Invitrogen) whereas N2A were cultured in DMEM (Invitrogen) with 10% Fetal Bovine Serum (Gibco) medium, subjected to differentiation to acquire neuronal morphology (employing differentiation media DMEM-F12, 3-5% FBS, (For differentiation, low concentration of FBS was used) and 50 μM retinoic acid). Differentiated cells were later seeded into 96 well plates, at a density of 1×10^4 before being incubated for 48 hrs with the synthesized library. The exhausted culture media was substituted with new culture media containing 0.5 mg/ml MTT dye. Eventually, the OD at 490 nm excitation was measured using a 96-well plate reader. The proportion of viable cells was determined as percentage of absorbance of untreated cultures relative to control.

A short description of series [5]: Cell viability assay in differentiated neuronal cells (MTT), SHSY5Y. The class given is cell-based. As to conditions: human, read-out: % Cell viability ± SD, SHSY5Y.
From the text: as §1, §2

For series [6], the system named is p TrkB 515. The series is described as follows: Survival pathway protein expression by western blotting in SHSY5Y. In kind it is cell-based, human. How it is done:
(§3) Here, A1 was tested to find its role in eliciting survival pathway proteins in differentiated human neuroblastoma cells in concentration and time dependent manner.
(§4) To investigate the effect of A1 on the survival proteins, SHSY5Y cell cultures were treated with different concentrations for 6 hrs and analyzed for the expression of survival proteins, including p-Erk 44/42, p-AKT 473, Anti BDNF, and p TrkB 816 and p TrKB 515 by western blotting.
A general note: In western blotting, separated proteins are transferred to a membrane and probed.

Series [7] has as its system p-Erk 44/42. The description is as above. The class given is cell-based, human. As to conditions: after corticosterone insult. How it is done:
as §3, §4

The subject of series [8] is Anti BDNF. Described as above. In kind it is cell-based, human. As to conditions: after corticosterone insult. How it is done: as §3, §4
The test system of series [9] is p TrkB 816. The series is described as above. The class given is cell-based, human. How it is done: as §3, §4
In series [10] the test system is depression mice model. Briefly: In vivo corticosterone induced depression model: Forced Swim Test. Set-up: species or system mouse (male C57). As to conditions: Cort. alone 35 μg/ml. How it is done:
(§5) In vivo efficacy (ameliorates behavioral despair) of A1 in corticosterone induced model of stress (J. Neurochem., 2018 146, 722 734). […] A1 (20 mg/kg, oral) dissolved in normal saline was given for 3 consecutive weeks following corticosteroid stress. The sucrose preference test was employed, tail suspension test, and forced swim test to evaluate behavioral distress. We noticed that A1 can resurrect mice in stressful situations. […]
The forced swim test was employed to evaluate behavioral melancholy in depressed subjects. Each animal was individually conditioned in a glass cylinder 20 cm long, 10 cm deep and 14 cm radius of curvature. After being submerged in water for 5 mins, the mice's cumulative stationary episode, struggle in water, and eventual floating condition were evaluated. The duration for which the animals were motionless while attempting to hold both of their front limbs still was calculated by interpreting the visualizations portraying behavioral despair (Front Behav Neurosci., 2018, 12, 42).

Series [11] relates to p-AKT 473. Briefly: Survival pathway protein expression by western blotting in SHSY5Y. The class given is cell-based, human. How it is done: as §3
To investigate the effect of A1 on the survival proteins, […] of survival proteins, including p-Erk 44/42, p-AKT 473, Anti BDNF, and p TrkB 816 and p TrKB 515 by western blotting.

A short description of series [12]: In vivo corticosterone induced depression model: effect on body weight. Further details: species or system mouse (male C57). The note with it: Cort. alone 35 μg/ml, negative control, 21 days. How it is done: as §5
Series [13] relates to p-Erk 44/42. Briefly: Survival pathway protein expression by western blotting in SHSY5Y. In kind it is cell-based, human. As to conditions: Cort. 400 μM, 6 hrs.
Series [14] has as its system Anti BDNF. The description is as above. The class given is cell-based, human. The note with it: Cort. 400 μM, 6 hrs.
For series [15], the system named is depression mice model. Briefly: In vivo corticosterone induced depression model: sucrose preference test. Set-up: species or system mouse (male C57). The note with it: Cort. alone, negative control, 2% sucrose, 21 days. How it is done: as §5
Sucrose consumption was employed to evaluate anhedonia, a core hallmark of depression in mice. The animals were allowed unfettered access to both identical bottles, one containing water while the other contained a 2% solution of sucrose, for 21 days.
The below equation was later employed to determine water and sugar consumed by mice:
Sucrose Preference=Sucrose consumed[…]/Total fluid intake.

The test system of series [16] is depression mice model. The series is described as follows: In vivo corticosterone induced depression model: Tail Suspension Test (TST). Further details: species or system mouse (male C57). The note with it: Cort. alone. How it is done:
A1 (20 mg/kg, oral) dissolved in normal saline was given for 3 consecutive weeks following corticosteroid stress. The sucrose preference test was employed, tail suspension test, and forced swim test to evaluate behavioral distress.
Tail Suspension Test (TST) is a behavioral test employed to assess perturbations expected to influence depression like phenotypes. TST is grounded on the reflection that the extent of immobility is allied with depressing phenotype of mice overturned by antidepressants. Mice were positioned 2 cm from their tail tips and 5 cm above the ground suspending the tails using adhesive tape for the free movement (Acta Neuropathol Commun., 2016, 4(1), 108).
The contemporary immobility was alluded to as interruption in motion, where a blind assessor evaluates the disappointed aspect of display before scoring it.

The values below come from patent publication US20260315499A1, “2'- {HETEROCYCLYL (ARYL/ALKYL) METHYL} - CANNABIDIOL COMPOUNDS AND PROCESS FOR PREPARATION THEREOF” (COUNCIL OF SCIENTIFIC & INDUSTRIAL RESEARCH, priority 2023, published 2026).

Read-outs that look alike come from different tables or passages of the source.

Regarding `C=C(C)[C@@H]1CCC(C)=C[C@H]1c1c(O)cc(CCCCC)cc1O` [B1, cannabidiol], the viability (commonly a read-out of living cells in per cent, often relative to untreated cells) at 24 h, 5 µM in series [1] (RAW264.7, 5 μM) was 95.5 ± 1.5%. In [1] (RAW264.7, 10 μM), the viability at 24 h, 10 µM stood at 91 ± 1.6%. The viability at 20 µM in series [2] (read-out: % Cell viability ± SD, test compound 20 μM + Cort. 400 μM, 96 hrs) was determined as 86.7 ± 1.16%; in series [2] (read-out: % Cell viability ± SD, test compound alone, 20 μM, 96 hrs), 102 ± 1.06%. In addition, in [3] (Mus musculus, RAW264.7, 5 μM, read-out: % NO Inhibition ± SD), the inhibition (as a rule, how much of the control response was suppressed) at 5 µM is 24.3 ± 3.2%. Moreover, the inhibition at 10 µM in series [3] (Mus musculus, RAW264.7, 10 μM, read-out: % NO Inhibition ± SD) was determined as 38.3 ± 3.7%. For the same compound, the “production of NO (in words)” value in [3] (pre-treated) is “decreased”. Besides, the viability at 48 h, 20 µM in series [4] was 107 ± 1.53%; in series [5] it was 108 ± 1.13%.

On to `C[C@]12C[C@H](O)[C@H]3[C@@H](CCC4=CC(=O)CC[C@@]43C)[C@@H]1CC[C@@H]2C(=O)CO` [Cort., corticosterone, reference compound], for which, in series [6] (Cort. 400 μM, 6 hrs), the “Relative Protein Expression p TrkB 515” value came to 0.15. Further, the “p TrkB 515 level (in words)” value in series [6] (after corticosterone insult) is recorded as “decrease”. For the same compound, the “p-Erk 44/42 level (in words)” value in [7] is “decrease”. The “anti BDNF level (in words)” value in [8] was “decrease”. In [9] (Cort. 400 μM, 6 hrs), the “Relative Protein Expression p TrkB 816” value came to 0.36. In addition, the “p TrkB 816 level (in words)” value in series [9] (after corticosterone insult) is on record as “decrease”. For the same compound, the “% Immobility (sec) ± SD (dead time)” value in [10] is 67.15 ± 12.32 s; in series [16], 52.32 ± 9.96 s; in [16] (listed as corticosterone), 52.32 ± 9.96 s. For the same compound, the “% Latency to immobility (sec) ± SD” value came out at 16.14 ± 5.68 s in series [10], 6.97 ± 4.52 s in series [16] and 6.97 ± 4.52 s in [16] (listed as corticosterone). Besides, in series [11] (Cort. 400 μM, 6 hrs), the “Relative Protein Expression PAKT 473” value was determined as 0.01. The “p-AKT 473 level (in words)” value in series [11] (after corticosterone insult) is reported as “decrease”. Further, the “Weight (g) ± SD” value was found to be 29.57 ± 3.90 g in series [12] and 27.40 ± 1.91 g in series [12] (listed as corticosterone). The “Relative Protein Expression p ERK 44/42” value in series [13] is recorded as 0.36. Besides, the “Relative Protein Expression Anti BDNF” value in [14] came to 0.10. The “% Sucrose consumption (ml) ± SD” value was found to be 43.50 ± 3.35% in [15] and 43.50±3.35% in series [15] (listed as corticosterone).
